# In US8569336B2, “Compounds for the treatment of inflammatory disorders” (priority 2008, dated 2013):
# Like-named read-outs stand apart in the source and are kept apart here.
# How the values were obtained:
# [1] = target: T1, purified catalytic domain of recombinant human TACE (rhTACEc) (Homo sapiens, UniProt P78536, N452Q/S266A); assay: TACE kinetic assay: cleavage of internally quenched peptide substrate TNF-FRET 2 (Ki); type: biochemical; details: TNF-FRET 2 substrate
# T1 construct: 6xHis (C); made in house; host or cells: baculovirus/Hi5 insect cells
# T1 sequence (P78536 215-477 S266A/N452Q): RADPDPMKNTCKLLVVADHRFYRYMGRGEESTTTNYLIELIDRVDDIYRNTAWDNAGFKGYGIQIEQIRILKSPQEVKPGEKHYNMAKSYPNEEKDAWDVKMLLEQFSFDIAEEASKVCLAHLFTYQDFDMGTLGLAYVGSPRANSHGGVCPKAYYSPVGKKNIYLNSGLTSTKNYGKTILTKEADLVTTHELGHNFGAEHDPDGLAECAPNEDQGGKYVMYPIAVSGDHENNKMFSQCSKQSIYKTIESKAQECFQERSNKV
# [2] = system: TNF-α production from human whole blood; assay: Inhibition of TNF-α production from human whole blood (hWBA), LPS stimulated, ELISA; type: cell-based; details: Homo sapiens, TNF-α by ELISA, read-out: hWBA (IC50)
# [3] = LPS-stimulated human whole blood
# [4] = 3.5 h, human whole blood diluted 1:1, LPS stimulated, 3.5 h
# [5] = human whole blood diluted 1:1, LPS stimulated
Structure (SMILES),Ki ([1]; read-out: Ki),"IC50 [2, 3]","IC50 [2, 4]","IC50 [2, 5]",Ki ([1]; Ki)
COc1ccc2c(c1F)C(=O)N(C[C@@]1(c3cc4nc(Nc5cn[nH]c5)ccc4o3)NC(=O)NC1=O)C2 [Compound 1730],0.6 nM,175 nM,,,
COc1ccc2c(c1)C(=O)N(C[C@@]1(c3cc4c(-c5ccccc5F)nccc4o3)NC(=O)NC1=O)C2 [Compound 2237],0.356 nM,,1150 nM,,
CCCN1CC=C(c2nc3cc([C@]4(CN5Cc6ccc(OC)c(F)c6C5=O)NC(=O)NC4=O)oc3cc2F)CC1 [Compound 1322],0.51 nM,96 nM,,,
COc1ccc2c(c1)C(=O)N(C[C@@]1(c3ccc(-c4ccc(C(=NO)N5CCN(C)CC5)cc4)cc3)NC(=O)NC1=O)C2 [Compound 2456],0.76 nM,,,1010 nM,
COc1ccc2c(c1)C(=O)N(C[C@@]1(c3cc4cc(C(C)=O)cnc4o3)NC(=O)NC1=O)C2 [Compound 2433],0.731 nM,,,712 nM,
COc1ccc2c(c1)C(=O)N(C[C@@]1(c3cc4nc(N5CCCNC5=O)ccc4o3)NC(=O)NC1=O)C2 [Compound 2134],0.467 nM,,115 nM,,
COc1ccc2c(c1)C(=O)N(C[C@@]1(c3cc4cc(CNCC5CCNCC5)ccc4o3)NC(=O)NC1=O)C2 [Compound 2183],1.02 nM,,526 nM,,
COc1ccc2c(c1Br)C(=O)N(C[C@@]1(c3cc4ncccc4o3)NC(=O)NC1=O)C2 [Compound 1738],1.4 nM,> 10000 nM,,,
C#Cc1c(O)ccc2c1C(=O)N(C[C@@]1(c3cc4ncccc4o3)NC(=O)NC1=O)C2 [Compound 1737],5.8 nM,> 10000 nM,,,
COc1ccc2c(c1)C(=O)N(C[C@@]1(c3cc4c(O)nccc4o3)NC(=O)NC1=O)C2 [Compound 2256],0.231 nM,,252 nM,,
COc1ccc2c(c1)C(=O)N(C[C@@]1(c3cc4nc(C(=O)O)ccc4o3)NC(=O)NC1=O)C2 [Compound 1514],0.7 nM,195 nM,,,
COc1ccc2c(c1)C(=O)N(C[C@@]1(c3cc4nc(Nc5c(C)cnn5C)ccc4o3)NC(=O)NC1=O)C2 [Compound 2111],0.762 nM,,1130 nM,,
COc1cc2c(cc1OC)C(=O)N(C[C@@]1(c3cc4cnccc4o3)NC(=O)NC1=O)C2 [Compound 200],7.23 nM,≥ 10000 nM,,,
COC(=O)c1cnc2cc([C@]3(CN4Cc5ccc(OC)cc5C4=O)NC(=O)NC3=O)oc2c1 [Compound 1928],0.52 nM,841 nM,,,
COc1ccc2c(c1)C(=O)N(C[C@@]1(c3cc4cnc(Cl)nc4o3)NC(=O)NC1=O)C2 [Compound 2301],0.36 nM,,,532 nM,
CCNc1nnc(-c2ccc3oc([C@]4(CN5Cc6ccc(OC)c(F)c6C5=O)NC(=O)NC4=O)cc3n2)o1 [Compound 1916],0.81 nM,308 nM,,,
COc1ccc2c(c1)C(=O)N(C[C@@]1(c3cc4cc(S(=O)(=O)NCCN(C)C)ccc4o3)NC(=O)NC1=O)C2 [Compound 2482],0.67 nM,,,304 nM,
COc1ccc2c(c1)C(=O)N(C[C@@]1(c3cc4nc(NC5CCNCC5)ccc4o3)NC(=O)NC1=O)C2 [Compound 1723],2.66 nM,560 nM,,,
O=C1NC(=O)[C@](CN2Cc3ccc(O)c(F)c3C2=O)(c2cc3ncccc3o2)N1 [Compound 1721],,> 10000 nM,,,1.64 nM
COc1ccc2c(c1)C(=O)N(C[C@@]1(c3cc4nc(Nc5ccccn5)ccc4o3)NC(=O)NC1=O)C2 [Compound 2128],0.888 nM,,1910 nM,,
CCN1CCN(C(=NO)c2cnc3cc([C@]4(CN5Cc6ccc(OC)cc6C5=O)NC(=O)NC4=O)oc3c2)CC1 [Compound 2468],,,,342 nM,1.44 nM
COc1ccc2c(c1)C(=O)N(C[C@@]1(c3cc4cc(Br)ccc4o3)NC(=O)NC1=O)C2 [Compound 2192],0.491 nM,,3310 nM,,
CCC1(c2ccc3oc([C@]4(CN5Cc6ccc(OC)cc6C5=O)NC(=O)NC4=O)cc3c2)NC(=O)NC1=O (some centres unmarked) [Compound 2208],0.249 nM,,220 nM,,
COc1ccc2c(c1)C(=O)N(C[C@@]1(c3cc4nc(-c5ccc6nccn6c5)ccc4o3)NC(=O)NC1=O)C2 [Compound 2150],0.806 nM,,828 nM,,
COc1ccc2c(c1)C(=O)N(C[C@@]1(c3cc4nc(N5CCCC5)ccc4o3)NC(=O)NC1=O)C2 [Compound 2106],0.422 nM,,669 nM,,

Structure (SMILES),Ki ([1]; read-out: Ki),"IC50 [2, 3]","IC50 [2, 4]","IC50 [2, 5]",Ki ([1]; Ki)
Cc1ccc2c(c1)C(=O)N(C[C@@]1(c3cc4ncccc4o3)NC(=O)NC1=O)C2 [Compound 1740],,> 10000 nM,,,2.91 nM
COc1ccc2c(c1F)C(=O)N(C[C@@]1(c3cc4cc(C5(C)NC(=O)NC5=O)c(C)cc4o3)NC(=O)NC1=O)C2 (some centres unmarked) [Compound 1306],1.42 nM,414 nM,,,
CCN1C[C@@H]2C[C@H]1CN2c1ccc2oc([C@]3(CN4Cc5ccc(OC)c(F)c5C4=O)NC(=O)NC3=O)cc2n1 [Compound 1292],0.86 nM,,177 nM,,
COc1ccc2c(c1)C(=O)N(C[C@@]1(c3cc4cnc(-c5c(C)noc5C)cc4o3)NC(=O)NC1=O)C2 [Compound 2288],0.721 nM,,,696 nM,
COc1ccc2c(c1)C(=O)N(C[C@@]1(c3ccc(C(N)=O)cc3)NC(=O)NC1=O)C2 [Compound 2403],1.3 nM,,,1970 nM,
COc1ccc2c(c1)C(=O)N(C[C@@]1(c3cc4c[n+]([O-])ccc4o3)NC(=O)NC1=O)C2 [Compound 2259],1.08 nM,,509 nM,,
CCOC(=O)NCc1ccc2oc([C@]3(CN4Cc5ccc(OC)cc5C4=O)NC(=O)NC3=O)cc2c1 [Compound 2484],,,,1690 nM,0.49 nM
COc1ccc2c(c1Cl)C(=O)N(C[C@@]1(c3cc4cnccc4o3)NC(=O)NC1=O)C2 [Compound 2306],0.57 nM,,,834 nM,
COc1ccc2c(c1F)C(=O)N(C[C@@]1(c3cc4nc(C5CCNCC5)c(F)cc4o3)NC(=O)NC1=O)C2 [Compound 1323],0.08 nM,140 nM,,,
COc1ccc2c(c1)C(=O)N(C[C@@]1(c3cc4nc(NC(=O)[C@@H](C)O)ccc4o3)NC(=O)NC1=O)C2 [Compound 2137],0.36 nM,,310 nM,,
COc1ccc2c(c1)C(=O)N(C[C@@]1(c3ccc(-c4cnc(N5CCCC5)nc4)cc3)NC(=O)NC1=O)C2 [Compound 1503],2.4 nM,7090 nM,,,
COc1ccc2c(c1F)C(=O)N(C[C@@]1(c3cc4cc([C@]5(C)C(=O)NC(=O)N5C)c(F)cc4o3)NC(=O)NC1=O)C2 [Compound 1317],0.47 nM,234 nM,,,
COc1ccc2c(c1)C(=O)N(C[C@@]1(c3cc4cc(-c5ccncc5)ccc4o3)NC(=O)NC1=O)C2 [Compound 2194],0.741 nM,,1170 nM,,
COC(=O)c1ccc2oc([C@]3(CN4Cc5ccc(OC)cc5C4=O)NC(=O)NC3=O)cc2n1 [Compound 2463],0.13 nM,,,339 nM,
COc1ccc2c(c1)C(=O)N(C[C@@]1(c3cc4cc(C5CNC(=O)C5)ccc4o3)NC(=O)NC1=O)C2 (some centres unmarked) [Compound 2215],,,381 nM,,0.524 nM
COc1ccc2c(c1)C(=O)N(C[C@@]1(c3cc4nc(CO)ccc4o3)NC(=O)NC1=O)C2 [Compound 1945],0.69 nM,728 nM,,,
COc1ccc2c(c1)C(=O)N(C[C@@]1(c3cc4cnc(-c5c(C)nn(C)c5C)cc4o3)NC(=O)NC1=O)C2 [Compound 2251],0.746 nM,,2490 nM,,
COc1ccc2c(c1F)C(=O)N(C[C@@]1(c3ccco3)NC(=O)NC1=O)C2 [Compound 313],0.736 nM,1790 nM,,,
COc1ccc2c(c1)C(=O)N(C[C@@]1(c3cc4cc(-c5cc(O)nc(N)n5)cnc4o3)NC(=O)NC1=O)C2 [Compound 302],0.53 nM,151 nM,,,
COc1ccc2c(c1)C(=O)N(C[C@@]1(c3cc4cncc(Br)c4o3)NC(=O)NC1=O)C2 [Compound 2303],0.312 nM,,,630 nM,
COc1ccc2c(c1)C(=O)N(C[C@@]1(c3cc4c(C)nc(O)c(C(N)=O)c4o3)NC(=O)NC1=O)C2 [Compound 2435],1.14 nM,,,504 nM,
COc1ccc2c(c1)C(=O)N(C[C@@]1(c3cc4cc(-c5c(OC(C)C)noc5C)cnc4o3)NC(=O)NC1=O)C2 [Compound 501],0.844 nM,1590 nM,,,
COc1ccc2c(c1)C(=O)N(C[C@@]1(c3cc4[nH]c(=O)ccc4o3)NC(=O)NC1=O)C2 [Compound 1946],0.37 nM,542 nM,,,
COc1ccc2c(c1)C(=O)N(C[C@@]1(c3cc4ccc(C(=O)N[C@@H](C)CO)cc4o3)NC(=O)NC1=O)C2 [Compound 2417],0.64 nM,,,508 nM,
